Here are results for one compound from PubChem BioAssay AID1259411 (Chemical Carcinogenesis Research Information System (CCRIS), 2018).

Active and inactive are the calls of the source. No rule for the calls is given here.

The data set concerns rodent carcinogenicity bioassays, tumor incidence. As to the kind of experiment: CCRIS carcinogenicity studies. The settings on record: Dose: 0, Dose: 0. In short, it runs like this: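 Archive of carcinogenicity, mutagenicity, tumor promotion and tumor inhibition results drawn from journals, NCI reports and other sources, expert-reviewed; covers 1985-2011 and is no longer updated.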

For the compound `O=c1[nH]cc(F)c(=O)[nH]1`, the carcinogen call is, setting by setting: (Species: MOUSE, Strain/Sex: B6C3F1/FEMALE, Route: ORAL, 30, 60 PPM IN DRINKING WATER FOR 82 WK (STUDY DURATION: 86 WK), 30, 60 PPM IN DRINKING WATER FOR 82 WK (STUDY DURATION: 86 WK)) “inactive; negative”; (Species: MOUSE, Strain/Sex: B6C3F1/MALE, Route: ORAL, 30, 60 PPM IN DRINKING WATER FOR 82 WK (STUDY DURATION: 86 WK), 30, 60 PPM IN DRINKING WATER FOR 82 WK (STUDY DURATION: 86 WK)) “inactive; negative”; (Species: MOUSE, Strain/Sex: BALB/FEMALE, Route: INTRAPERITONEAL, 30 MG/KG IN STERILE SALINE 1/WK FOR 50 WK (STUDY DURATION: 105 WK), Tumor Site: Type of Lesion: LUNG: TUMOR, LYMPHORETICULAR SYSTEM: LYMPHOMA OR LEUKEMIA) “active; positive”; (Species: MOUSE, Strain/Sex: BALB/MALE, Route: INTRAPERITONEAL, 30 MG/KG IN STERILE SALINE 1/WK FOR 50 WK (STUDY DURATION: 105 WK), Tumor Site: Type of Lesion: LUNG: TUMOR) “active; positive”; (Species: RAT, Strain/Sex: F344/FEMALE, Route: ORAL, 62, 125 PPM IN DRINKING WATER FOR 111 WK (STUDY DURATION: 111 WK), 62, 125 PPM IN DRINKING WATER FOR 111 WK (STUDY DURATION: 111 WK)) “inactive; negative”; (Species: RAT, Strain/Sex: F344/MALE, Route: ORAL, 62, 125 PPM IN DRINKING WATER FOR 111 WK (STUDY DURATION: 111 WK), 62, 125 PPM IN DRINKING WATER FOR 111 WK (STUDY DURATION: 111 WK)) “inactive; negative”.
